Test results reported in PubChem BioAssay (NCI).
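Results reflect a 48-hour exposure of cells in 96-well plates to compound at five concentrations. TGI denotes the concentration required for complete inhibition of growth.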

How the values were obtained:
Experiment in all cases: DTP human tumour cell line panel, 48 h
[1] = system: 786-0 renal
[2] = system: A498 renal
[3] = system: A549 NSCLC
[4] = system: ACHN renal
[5] = system: BT-549 breast
[6] = system: CAKI-1 renal
[7] = system: CCRF-CEM leukemia
[8] = system: COLO 205 colon
[9] = system: DU-145 prostate
[10] = system: EKVX NSCLC
[11] = system: HCC-2998 colon
[12] = system: HCT-116 colon
[13] = system: HCT-15 colon
[14] = system: HL-60(TB) leukemia
[15] = system: HOP-62 NSCLC
[16] = system: HOP-92 NSCLC
[17] = system: HS 578T breast
[18] = system: HT29 colon
[19] = system: IGROV1 ovarian
[20] = system: K-562 leukemia
[21] = system: KM12 colon
[22] = system: LOX IMVI melanoma
[23] = system: M14 melanoma
[24] = system: MALME-3M melanoma
[25] = system: MCF7 breast
[26] = system: MDA-MB-231 breast
[27] = system: MDA-MB-435
[28] = system: MDA-N
[29] = system: MOLT-4 leukemia
[30] = system: NCI-H226 lung
[31] = system: NCI-H23 lung
[32] = system: NCI-H460 lung
[33] = system: NCI-H522 lung
[34] = system: NCI/ADR-RES ovarian
[35] = system: OVCAR-3 ovarian
[36] = system: OVCAR-4 ovarian
[37] = system: OVCAR-5 ovarian
[38] = system: OVCAR-8 ovarian
[39] = system: PC-3 prostate
[40] = system: RPMI-8226 leukemia
[41] = system: RXF 393 renal
[42] = system: SF-268 CNS
[43] = system: SF-295 CNS
[44] = system: SF-539 CNS
[45] = system: SK-MEL-2 melanoma
[46] = system: SK-MEL-28 melanoma
[47] = system: SK-MEL-5 melanoma
[48] = system: SK-OV-3 ovarian
[49] = system: SN12C renal
[50] = system: SNB-19 CNS
[51] = system: SNB-75 CNS
[52] = system: SR leukemia
[53] = system: SW-620 colon
[54] = system: T-47D breast
[55] = system: TK-10 renal
[56] = system: U251 CNS
[57] = system: UACC-257 melanoma
[58] = system: UACC-62 melanoma
[59] = system: UO-31 renal

CC1=C/C(=C(/c2ccc(O)c(C)c2)c2ccccc2C(=O)O)C=CC1=O
TGI [1]: 33.7 µM
TGI [2]: 32.8 µM
TGI [3]: 35.3 µM
TGI [4]: 32.2 µM
TGI [5]: 39 µM
TGI [6]: 32 µM
TGI [7]: 45.1 µM
TGI [8]: 34.3 µM
TGI [9]: 35.6 µM
TGI [10]: 36 µM
TGI [11]: 34.5 µM
TGI [12]: 32.8 µM
TGI [13]: 42.7 µM
TGI [14]: 43.6 µM
TGI [15]: 38 µM
TGI [16]: 34.8 µM
TGI [17]: 52 µM
TGI [18]: 42.8 µM
TGI [19]: 34.1 µM
TGI [20]: 44.7 µM
TGI [21]: 36.6 µM
TGI [22]: 35.9 µM
TGI [23]: 32.5 µM
TGI [24]: 46.8 µM
TGI [25]: 34.5 µM
TGI [26]: 40.4 µM
TGI [27]: 33.3 µM
TGI [28]: 33.2 µM
TGI [29]: 43.1 µM
TGI [30]: 44.5 µM
TGI [31]: 36.6 µM
TGI [32]: > 100 µM
TGI [33]: 42.7 µM
TGI [34]: 80.5 µM
TGI [35]: 33.2 µM
TGI [36]: 33.9 µM
TGI [37]: 42.3 µM
TGI [38]: 36.3 µM
TGI [39]: 35.9 µM
TGI [40]: 46 µM
TGI [41]: 33.8 µM
TGI [42]: 57.1 µM
TGI [43]: 44.2 µM
TGI [44]: 35.2 µM
TGI [45]: 38.5 µM
TGI [46]: 40 µM
TGI [47]: 34.9 µM
TGI [48]: 35.1 µM
TGI [49]: 36.7 µM
TGI [50]: 32.2 µM
TGI [51]: 35.8 µM
TGI [52]: 47 µM
TGI [53]: 39 µM
TGI [54]: 72.1 µM
TGI [55]: 31.1 µM
TGI [56]: 32.1 µM
TGI [57]: 35.8 µM
TGI [58]: 30.9 µM
TGI [59]: 33.6 µM
